Data on 1 compound can be found in article PMC9697131, “Agomelatine, Ketamine and Vortioxetine Attenuate Energy Cell Metabolism—In Vitro Study” (International Journal of Molecular Sciences, 2022).

The structures appear in SMILES notation.

This assay has as its system complex II+III-linked ATP kinetics, pig brain mitochondria. In words: Complex II+III-linked ATP kinetics, bioluminescence. The assay is classed as biochemical. The following applies: 10 μM drug; mean ± SD. The protocol: Pig brains were obtained from a slaughterhouse. Mitochondrial fraction isolation and purification from brain cortex were performed as previously described. Briefly, grey matter from pig brains was homogenized and crude mitochondrial fraction was isolated and then centrifuged on the sucrose gradient to obtain purified mitochondrial fraction. The freshly purified mitochondria were kept on ice until the assays were performed and were used for measurements of the mitochondrial oxygen consumption rate, measurements of ATP and ROS formation. Frozen mitochondria (stored at −70 °C) were used for the following enzyme activity measurements: ETC complexes, citrate synthase (CS) and malate dehydrogenase (MDH) activity.
The following protocol has been modified and optimized. An ATP Bioluminescence Assay Kit CLS II was used to measure ATP content and kinetics. The luminescence was measured using FluoroMax-3 (Jobin Yvon, Edison, NJ, USA) at 562 nm. Standard curve for ATP determination was prepared from ATP standard in the range from 0 to 600 nM. […]
For ATP kinetics determination MiR05 buffer, mitochondria and drugs were incubated on ice for 20 min and another 10 min at room temperature. Background luminescence was measured. Consequently, the same substrate mixture as mentioned above, and 230 µL of luciferase reagent were added and ATP kinetics was determined by measuring the luminescence for 4 min. […]

Turning to `CNC1(c2ccccc2Cl)CCCCC1=O` (stereo not shown) [ketamine], the “complex II+III-linked ATP kinetics (relative to control = 100%)” value is 84.9 ± 5.9%.
